Assay results taken from ChEMBL document CHEMBL3638726, “Substituted indole compounds having NOS inhibitory activity” (2013).

Experiments:
[1] = biological target: 5-hydroxytryptamine 1D receptor (Bos taurus, UniProt Q8MI13); test: Binding Assay: 5-HT1D binding assays (agonist radioligand)were performed using bovine caudate membranes according to the methods of Heuring and Peroutka (J. Neurosci 1987, 7: 894-903). 5-HT1B (rat cerebral cortex) binding assays (agonist radioligand) were performed according to the method of Hoyer et. al. (Eur. J. Pharmacol. […], 118: 1-12).; assay type: tissue-based
Nitric oxide synthase 3 = biological target: T1, Nitric oxide synthase 3 (Homo sapiens, UniProt P29474); test: Enzyme Assay: Enzyme assay using recombinant human inducible NOS (iNOS), human endothelial constitutive NOS (eNOS) or human neuronal constitutive NOS (nNOS).
T1 sequence (P29474 whole entry): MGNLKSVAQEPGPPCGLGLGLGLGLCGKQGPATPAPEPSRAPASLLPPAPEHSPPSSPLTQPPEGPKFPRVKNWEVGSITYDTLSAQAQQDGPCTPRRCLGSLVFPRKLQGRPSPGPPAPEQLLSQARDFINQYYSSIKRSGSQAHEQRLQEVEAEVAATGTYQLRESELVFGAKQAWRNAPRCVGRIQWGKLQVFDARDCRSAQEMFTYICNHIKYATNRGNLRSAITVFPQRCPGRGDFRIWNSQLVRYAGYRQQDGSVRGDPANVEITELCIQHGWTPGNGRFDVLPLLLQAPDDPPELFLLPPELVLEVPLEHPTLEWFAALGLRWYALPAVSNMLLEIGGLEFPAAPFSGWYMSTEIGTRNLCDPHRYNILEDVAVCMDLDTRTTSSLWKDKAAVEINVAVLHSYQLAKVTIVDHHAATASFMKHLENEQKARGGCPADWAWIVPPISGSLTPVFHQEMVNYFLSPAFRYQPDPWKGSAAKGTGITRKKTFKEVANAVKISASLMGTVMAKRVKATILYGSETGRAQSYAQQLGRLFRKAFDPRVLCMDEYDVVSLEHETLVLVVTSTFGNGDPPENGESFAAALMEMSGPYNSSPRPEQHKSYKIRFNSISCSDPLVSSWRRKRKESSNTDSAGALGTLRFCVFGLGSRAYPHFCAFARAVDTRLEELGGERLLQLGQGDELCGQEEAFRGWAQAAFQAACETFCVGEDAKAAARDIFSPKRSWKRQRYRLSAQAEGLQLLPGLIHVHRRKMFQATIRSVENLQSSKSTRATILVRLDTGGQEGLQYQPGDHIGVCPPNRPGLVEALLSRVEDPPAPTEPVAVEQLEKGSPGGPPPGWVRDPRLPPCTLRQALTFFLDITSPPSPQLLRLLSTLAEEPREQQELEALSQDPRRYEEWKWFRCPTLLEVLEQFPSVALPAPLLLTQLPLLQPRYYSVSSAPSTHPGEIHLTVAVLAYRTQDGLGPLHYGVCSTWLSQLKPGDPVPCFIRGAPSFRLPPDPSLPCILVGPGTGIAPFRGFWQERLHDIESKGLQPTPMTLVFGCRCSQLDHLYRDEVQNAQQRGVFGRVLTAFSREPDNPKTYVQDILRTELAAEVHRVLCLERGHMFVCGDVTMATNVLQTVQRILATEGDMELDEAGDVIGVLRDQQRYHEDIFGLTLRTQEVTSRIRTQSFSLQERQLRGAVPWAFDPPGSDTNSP

Chain of 5-hydroxytryptamine 1D receptor (Q8MI13 whole entry): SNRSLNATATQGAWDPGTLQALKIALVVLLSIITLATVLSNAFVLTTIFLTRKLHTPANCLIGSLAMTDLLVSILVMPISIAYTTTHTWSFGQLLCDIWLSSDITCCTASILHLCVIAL

Row | SMILES | IC50 [1] [nM] | IC50 (Nitric oxide synthase 3) [nM]
1 | CN1CC=C(c2c[nH]c3ccc(NC(=S)NC(=O)c4ccccc4)cc23)CC1 | 56 | –
2 | CN1CC=C(c2c[nH]c3ccc(CNC(=N)c4cccs4)cc23)CC1 | 220 | –
3 | CN1CC=C(c2c[nH]c3ccc(NC(=N)c4cccs4)cc23)CC1 | 51 | –
4 | CN1CC=C(c2c[nH]c3ccc(NC(=N)c4ccco4)cc23)CC1 | 50 | –
5 | CN1CCC(c2c[nH]c3ccc(NC(=N)c4cccs4)cc23)CC1 | 570 | –
6 | CCSC(=N)Nc1ccc2[nH]cc(C3=CCN(C)CC3)c2c1 | 48 | –
7 | CN(C)CCc1c[nH]c2ccc(CNC(=N)c3cccs3)cc12 | 290 | –
8 | CCN1CCC(c2c[nH]c3ccc(NC(=N)c4cccs4)cc23)CC1 | 680 | –
9 | CN1CCC[C@@H]1Cc1c[nH]c2ccc(NC(=N)c3cccs3)cc12 | 130 | –
10 | CN1CCC[C@H]1Cc1c[nH]c2ccc(NC(=N)c3cccs3)cc12 | 1100 | –
11 | CN1CCC(c2c[nH]c3ccc(NC(=N)c4cccs4)cc23)C1 (stereo not drawn) | 350 | –
12 | CN1CCC(c2c[nH]c3ccc(/N=C(\N)c4ccco4)cc23)C1 (stereo not drawn) | 560 | –
13 | CN1CC[C@@H](c2c[nH]c3ccc(/N=C(\N)c4cccs4)cc23)[C@H](F)C1 | – | 40100
